Experimental findings from publication PMC11035696, “Prospective de novo drug design with deep interactome learning” (Nature Communications, 2024) are described below.

The target in one data set is T1, PPARγ LBD protein (Homo sapiens, UniProt P37231).
T1 construct: PPARγ LBD protein (30 μM, prepared as described previously[106]); made in house
In words: Isothermal titration calorimetry (ITC). The class given is binding. The method, then:
(§1) Compounds 1–3 were characterized in a hybrid reporter gene assay for their agoniztic effect on human nuclear receptors PPARα/γ/δ, RXRα, FXRα, RARα in HEK293T cells. Compound 1 was tested in an isothermal titration calorimetry (ITC) assay to measure direct binding affinity to the ligand-binding domain of PPARγ. ADME properties were measured in standardized assays at Roche.
ITC experiments were conducted on an Affinity ITC instrument (TA Instruments, New Castle, DE) at 25 °C with a stirring rate of 75 rpm. PPARγ LBD protein (30 μM, prepared as described previously[106]) in buffer (20 mM Tris pH 7.5, 150 mM NaCl, 5% glycerol) containing 5% DMSO was titrated with the test compound (1) (100 μM in the same buffer containing 5% DMSO) in 21 injections (1 × 1μl and 20 × 5μl) with an injection interval of 120 s. The test compound was titrated into buffer, and the buffer was titrated to the PPARγ LBD proteins under otherwise identical conditions. The ITC results were analyzed using NanoAnalyze software (TA Instruments, New Castle, DE) with an independent binding model.

The next data set addresses T2, human PPARα (Homo sapiens, UniProt Q07869).
T2 construct: expressed in transfected cells; host or cells: HEK293T
T2 sequence (Q07869 239-466 limits assumed): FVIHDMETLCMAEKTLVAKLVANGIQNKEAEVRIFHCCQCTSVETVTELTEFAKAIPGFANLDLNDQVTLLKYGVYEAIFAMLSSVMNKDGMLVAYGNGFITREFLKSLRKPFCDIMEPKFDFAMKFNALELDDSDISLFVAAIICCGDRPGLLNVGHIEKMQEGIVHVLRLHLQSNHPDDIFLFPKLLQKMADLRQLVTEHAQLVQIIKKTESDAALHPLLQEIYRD
In words: Gal4-hybrid reporter gene assay, PPARα activation. Format: cell-based. The following applies: hybrid reporter gene assay, result in words. The protocol: as §1
PPAR activation was determined in uniform Gal4-hybrid reporter gene assays for the PPARα, PPARγ and PPARδ isoforms in HEK293T cells (German Collection of Microorganisms and Cell Culture GmbH, DSMZ) which were transiently transfected with pFR-Luc (Stratagene, La Jolla, CA, USA; reporter) and pRL-SV40 (Promega, Madison, WI, USA; internal control) and one pFA-CMV-hPPAR-LBD[97] clone, coding for the hinge region and ligand binding domain of the canonical isoform of human PPARα, PPARγ, PPARδ or respectively. Cells were cultured in Dulbecco’s modified Eagle’s medium (DMEM), high glucose supplemented with 10% fetal calf serum (FCS), sodium pyruvate (1 mM), penicillin (100 U ⋅ ml^-1), and streptomycin (100 μg ⋅ ml^-1) at 37 °C and 5% CO2 and seeded in 96-well plates (3 × 10^4 cells per well). After 24 h, medium was changed to Opti-MEM without supplements and cells were transiently transfected using Lipofectamine LTX reagent (Invitrogen) according to the manufacturer’s protocol. Five hours after transfection, cells were incubated with the test compounds in Opti-MEM supplemented with penicillin (100 U ⋅ ml^-1), streptomycin (100 μg ⋅ ml^-1) and 0.1% DMSO for 16 h before luciferase activity was measured using the Dual-Glo Luciferase Assay System (Promega) according to the manufacturer’s protocol on a Tecan Spark luminometer (Tecan Deutschland GmbH, Germany). Firefly luminescence was divided by Renilla luminescence and multiplied by 1000 resulting in relative light units (RLU) to normalize for transfection efficiency and cell growth. Fold activation was obtained by dividing the mean RLU of a test compound by the mean RLU of the untreated control. All samples were tested in at least three biologically independent experiments in duplicates. For dose-response curve fitting and calculation of EC50 values, the equation “[Agonist] versus response (variable slope—four parameters)” was used in GraphPad Prism (version 7.00, GraphPad Software, La Jolla, CA, USA) with fold activation data. The reference agonizts GW7647 (PPARα)[98],[99], pioglitazone (PPARγ)[100],[101] and L165,041 (PPARδ)[102],[103] were used to validate the assays and to monitor assay performance. Nuclear receptor selectivity profiling was performed with corresponding pFA-CMV-hNR-LBD clones and suitable reference agonizts on RARα (pFA-CMV-hRARα-LBD[104], 1 μM tretinoin), LXRα (pFA-CMV-hLXRα-LBD[104], 1 μM TO901317) and RXRα (pFA-CMV-h RXRα-LBD[105], 1 μM Bexarotene).

The nature of data set [1]: Parallel artificial membrane permeability assay (PAMPA). Format: in vitro ADME. Particulars: PAMPAPEFF permeation coefficient. The protocol: as §1
SI11Absorption Distribution Metabolism and Excretion and Toxicity Data
To assess the drug-like characteristics of the newly designed PPAR modulators, a series of tests were conducted covering various aspects of absorption, distribution, metabolism, and excretion (ADME) properties. Specifically, these assessments included the parallel artificial membrane permeability assay (PAMPA) with permeation co- […]
efficients ([…]), LogD measurements, microsomal clearance, hepatocyte clearance, P-glycoprotein (Pgp) efflux ratio and binding and the unbound free fraction. […]
Table S14: Absorption distribution metabolism and excretion (ADME) properties of compounds 1 and 2. The […]
values for […], LogD, protein binding, P-glycoprotein (Pgp) efflux ratio and permeability, and hepato-cyte clearance are presented as the mean and standard deviation, with a sample size of N = 3, i.e., 3 technical replicates each. The values for microsomal clearance and CYP-inhibition represent single point measurements. […]

T1 sequence (P37231 238-503 limits assumed): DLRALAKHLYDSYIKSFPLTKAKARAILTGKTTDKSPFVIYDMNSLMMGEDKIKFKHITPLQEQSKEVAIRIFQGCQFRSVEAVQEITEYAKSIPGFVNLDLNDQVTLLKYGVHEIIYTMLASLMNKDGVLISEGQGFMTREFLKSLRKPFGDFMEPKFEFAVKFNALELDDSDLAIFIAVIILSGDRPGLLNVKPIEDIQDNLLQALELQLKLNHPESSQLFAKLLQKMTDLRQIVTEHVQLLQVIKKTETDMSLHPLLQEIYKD

As for `Cc1nnc(-c2ccc(OCCCOc3ccc(CCC(=O)O)c(F)c3)c(F)c2)s1` [Compound 1], the “molar ratio (ligand per protein)” value at PPARγ LBD protein is on record as “one ligand per protein molecule”. In addition, on PPARγ LBD protein (25 °C, ligand binding domain of PPARγ, read-out: dissociation constant KD), the Kd is 800 ± 100 nM.

Regarding `COc1ccc(Oc2ccc3ncn(CCOc4ccc(CCC(=O)O)cc4)c3c2)cc1` [Compound 2], the “activity on PPARα” value at human PPARα is listed as “no discernible impact”. For the same compound, the Papp in data set [1] was 3.9 ×10⁻⁶ cm/s.
